Here are results for 5 compounds from US9725414B2, “Fungicidal N-bicycloalkyl and N-tricycloalkyl pyrazole-4-(thio)carboxamide derivatives” (priority 2011, dated 2017).

Structures are written as SMILES.

The nature of series [1]: log P by HPLC on reversed-phase column (C 18), EEC Directive 79831 Annex V.A8. The settings on record: HPLC reversed-phase C 18, 40° C., 0.1% aqueous formic acid and acetonitrile gradient; several values = mixture of two or more isomers. It counts as physicochemical. A digest of the protocol:
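Reversed-phase C18 HPLC at 40° C, 0.1% aqueous formic acid/acetonitrile linear gradient 10% to 90% acetonitrile, per EEC Directive 79831 Annex V.A8. log P obtained from retention time by linear interpolation between unbranched alkan-2-ones (C3-C16) of known log P.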

For series [2], the system named is Sphaerotheca fuliginea. Briefly: Example B: in vivo preventive test on Sphaerotheca fuliginea (powdery mildew on cucurbits), gherkin plants. As to conditions: 500 ppm of active ingredient, grading 12 days after contamination. A digest of the protocol: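 Gherkin plants grown at 24 °C were sprayed with compound at the Z11 cotyledon stage; controls received acetone/tween/DMSO/water without active. 24 h later, cotyledons were inoculated by spraying with Sphaerotheca fuliginea spores (100 000 spores per mL).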

In series [3] the test system is Alternaria brassicae. The series can be described thus: Example D: in vivo preventive test on Alternaria brassicae (leaf spot on radish). The settings on record: 500 ppm of active ingredient, grading 6 days after contamination. Here is the method: In Vivo Preventive Test on Alternaria brassicae (Leaf Spot on Radish) […] Radish plants (“Pernod Clair” variety), sown in starter cups on a 50/50 peat soil pozzolana substrate and grown at 17° C., are treated at the cotyledon stage by spraying with the active ingredient prepared as described above. Plants, used as controls, are treated with the mixture of acetone/tween/DMSO/water not containing the active material. After 24 hours, the plants are contaminated by spraying the cotyledons with an aqueous suspension of Alternaria brassicae spores (50 000 spores per mL). The spores are collected from a 15-day-old culture. The contaminated radish plants are incubated at 20° C. and at 100% relative humidity. Grading (% of efficacy) is carried out 6 days after the contamination, in comparison with the control plants.

Series [4] concerns Pyrenophora teres. Briefly: Example F: in vivo preventive test on Pyrenophora teres (barley), acetone/tween/DMSO preparation. As to conditions: 500 ppm of active ingredient, barley, grading 14 days after contamination. A digest of the protocol: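 Barley ("Plaisant") grown at 22° C was sprayed at the 1-leaf stage (10 cm) with active ingredient in acetone/tween/DMSO/water, with solvent-only controls. After 24 h, leaves were inoculated with Pyrenophora teres spores (12 000 spores per mL) from 12-day cultures. % efficacy versus controls graded 14 days post-contamination.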

The test system of series [5] is Septoria tritici. Briefly: Example I: in vivo preventive test on Septoria tritici (wheat), acetone/tween/DMSO preparation. As to conditions: 500 ppm of active ingredient, grading 24 days after contamination. The essentials:
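Scipion wheat grown at 22° C, sprayed at 1-leaf stage (10 cm); controls received acetone/tween/DMSO/water without active. Inoculated 24 h later with S. tritici spores (500 000/mL), held 72 h at 18° C, 100% RH, then 21 days at 90% RH. % efficacy vs controls scored 24 days post-inoculation.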

Series [6] deals with Puccinia recondita. Briefly: Example M: in vivo preventive test on Puccinia recondita (brown rust on wheat). The settings on record: 500 ppm of active ingredient, grading 12 days after contamination. A digest of the protocol:
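Wheat (Scipion) sprayed with compound at 1-leaf stage, grown at 22° C. Inoculated 24 h later with a spore suspension at 100 000 spores per mL. Efficacy (%) graded 12 days after inoculation against solvent-treated controls.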

Series [7] has as its system Uromyces appendiculatus. Briefly: Example Q: in vivo preventive test on Uromyces appendiculatus (bean rust). The settings on record: Uromyces appendiculatus on bean plants, 500 ppm of active ingredient, grading 11 days after contamination. The essentials: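 Saxa bean plants at 2-leaf stage, grown at 24° C., sprayed preventively with compound; 24 h later inoculated with U. appendiculatus spores (150 000 spores per mL). Percent efficacy graded 11 days after inoculation versus solvent-treated controls.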

The subject of series [8] is Pyricularia oryzae. It counts as in vivo. As to conditions: Pyricularia oryzae on rice plants, preventive, 500 ppm of active ingredient, grading 6 days after contamination.
Series [9] has as its system Sphaerotheca fuliginea. Briefly: Example A: in vivo preventive test on Sphaerotheca fuliginea (cucumber). The settings on record: 500 ppm of active ingredient, evaluated 7 days after inoculation. Here is the method:
In Vivo Preventive Test on Sphaerotheca fuliginea (Cucumber) Solvent: 49 parts by weight of N,N-dimethylformamide Emulsifier: 1 part by weight of alkylarylpolyglycolether To produce a suitable preparation of active compound, 1 part by weight of active compound is mixed with the stated amounts of solvent and emulsifier, and the concentrate is diluted with water to the desired concentration. To test for preventive activity, young plants are sprayed with the preparation of active compound at the stated rate of application. One day after this treatment, the plants are inoculated with an aqueous spore suspension of Sphaerotheca fuliginea. Then the plants are placed in a greenhouse at approximately 23° C. and a relative atmospheric humidity of approximately 70%.

Series [10] relates to Alternaria solani. The series can be described thus: Example C: in vivo preventive test on Alternaria solani (tomato). As to conditions: 500 ppm of active ingredient, evaluated 7 days after inoculation. The essentials:
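Young tomato plants sprayed preventively with compound formulated in DMF/emulsifier and diluted with water, then inoculated one day later with Alternaria solani spores. Plants were held one day at about 22° C, 100% humidity, then at about 20° C, 96% humidity.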

Series [11] deals with Pyrenophora teres. The series can be described thus: Example E: in vivo preventive test on Pyrenophora teres (barley), DMF/emulsifier preparation. The settings on record: 500 ppm of active ingredient, evaluated 7-9 days after inoculation. A digest of the protocol:
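Young barley plants sprayed preventively with compound formulated in DMF/alkylaryl polyglycol ether emulsifier and diluted in water. One day later inoculated with aqueous Pyrenophora teres spore suspension, then held 48 h at 22 °C and 100% relative humidity.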

The subject of series [12] is Venturia inaequalis. The series can be described thus: Example G: in vivo preventive test on Venturia inaequalis (apple scab). As to conditions: 100 ppm of active ingredient, evaluated 10 days after inoculation. Here is the method: In Vivo Preventive Test on Venturia inaequalis (Apple Scab) Solvent: 24.5 parts by weight of acetone • 24.5 parts by weight of N,N-dimethylacetamide Emulsifier: 1 part by weight of alkylaryl polyglycol ether To produce a suitable preparation of active compound, 1 part by weight of active compound is mixed with the stated amounts of solvent and emulsifier, and the concentrate is diluted with water to the desired concentration. To test for preventive activity, young plants are sprayed with the preparation of active compound at the stated rate of application. After the spray coating has dried on, the plants are inoculated with an aqueous conidia suspension of the causal agent of apple scab (Venturia inaequalis) and then remain for 1 day in an incubation cabinet at approximately 20° C. and a relative atmospheric humidity of 100%. The plants are then placed in a greenhouse at approximately 21° C. and a relative atmospheric humidity of approximately 90%.

The test system of series [13] is Septoria tritici. The series can be described thus: Example H: in vivo preventive test on Septoria tritici (wheat), N,N-dimethylacetamide/emulsifier preparation. The settings on record: 500 ppm of active ingredient, evaluated 21 days after inoculation. Here is the method: In Vivo Preventive Test on Septoria tritici (Wheat) Solvent: 49 parts by weight of N,N-dimethylacetamide Emulsifier: 1 part by weight of alkylaryl polyglycol ether To produce a suitable preparation of active compound, 1 part by weight of active compound or active compound combination is mixed with the stated amounts of solvent and emulsifier, and the concentrate is diluted with water to the desired concentration. To test for preventive activity, young plants are sprayed with the preparation of active compound or active compound combination at the stated rate of application. After the spray coating has been dried, the plants are sprayed with a spore suspension of Septoria tritici. The plants remain for 48 hours in an incubation cabinet at approximately 20° C. and a relative atmospheric humidity of approximately 100% and afterwards for 60 hours at approximately 15° C. in a translucent incubation cabinet at a relative atmospheric humidity of approximately 100%.

Series [14] deals with Blumeria graminis f.sp. hordei. Briefly: Example J: in vivo preventive test on Blumeria graminis (barley). The settings on record: 500 ppm of active ingredient, evaluated 7 days after inoculation. Here is the method:
In Vivo Preventive Test on Blumeria graminis (Barley) Solvent: 49 parts by weight of N,N-dimethylacetamide Emulsifier: 1 part by weight of alkylaryl polyglycol ether To produce a suitable preparation of active compound, 1 part by weight of active compound or active compound combination is mixed with the stated amounts of solvent and emulsifier, and the concentrate is diluted with water to the desired concentration. To test for preventive activity, young plants are sprayed with the preparation of active compound or active compound combination at the stated rate of application. After the spray coating has been dried, the plants are dusted with spores of Blumeria graminis f.sp. hordei.

In series [15] the test system is Puccinia triticina. The series can be described thus: Example L: in vivo preventive test on Puccinia triticina (wheat). As to conditions: 500 ppm of active ingredient, evaluated 8 days after inoculation. Here is the method:
In Vivo Preventive Test on Puccinia triticina (Wheat)
Solvent: 49 parts by weight of N,N-dimethylacetamide
(§1) Emulsifier: 1 part by weight of alkylaryl polyglycol ether
To produce a suitable preparation of active compound, 1 part by weight of active compound or active compound combination is mixed with the stated amounts of solvent and emulsifier, and the concentrate is diluted with water to the desired concentration.
To test for preventive activity, young plants are sprayed with the preparation of active compound or active compound combination at the stated rate of application.
After the spray coating has been dried, the plants are sprayed with a spore suspension of Puccinia triticina.
The plants remain for 48 hours in an incubation cabinet at approximately 20° C. and a relative atmospheric humidity of approximately 100%.
The plants are placed in the greenhouse at a temperature of approximately 20° C. and a relative atmospheric humidity of approximately 80%.
The test is evaluated 8 days after the inoculation. 0% means an efficacy which corresponds to that of the untreated control, while an efficacy of 100% means that no disease is observed.

For series [16], the system named is Fusarium nivale (var. majus). The series can be described thus: Example N: in vivo preventive test on Fusarium nivale (wheat). The settings on record: 500 ppm of active ingredient, evaluated 5 days after inoculation. Here is the method: In Vivo Preventive Test on Fusarium nivale (Wheat) Solvent: 49 parts by weight of N,N-dimethylacetamide Emulsifier: 1 part by weight of alkylaryl polyglycol ether To produce a suitable preparation of active compound, 1 part by weight of active compound or active compound combination is mixed with the stated amounts of solvent and emulsifier, and the concentrate is diluted with water to the desired concentration. To test for preventive activity, young plants are sprayed with the preparation of active compound or active compound combination at the stated rate of application. After the spray coating has been dried, the plants are slightly injured by using a sandblast and afterwards they are sprayed with a conidia suspension of Fusarium nivale (var. majus). The plants are placed in the greenhouse under a translucent incubation cabinet at a temperature of approximately 10° C. and a relative atmospheric humidity of approximately 100%.

Series [17] relates to Botrytis cinerea. The series can be described thus: Example O: in vivo protective test on Botrytis cinerea (beans). As to conditions: 100 ppm of active ingredient, lesion size 2 days after inoculation. Here is the method:
In Vivo Protective Test on Botrytis cinerea (Beans)
Solvent: 24.5 parts by weight of acetone • 24.5 parts by weight of N,N-dimethylacetamide
as §1
To produce a suitable preparation of active compound, 1 part by weight of active compound is mixed with the stated amounts of solvent and emulsifier, and the concentrate is diluted with water to the desired concentration.
To test for preventive activity, young plants are sprayed with the preparation of active compound. After the spray coating has dried on, 2 small pieces of agar covered with growth of Botrytis cinerea are placed on each leaf. The inoculated plants are placed in a darkened chamber at 20° C. and a relative atmospheric humidity of 100%.
2 days after the inoculation, the size of the lesions on the leaves is evaluated. 0% means an efficacy which corresponds to that of the untreated control, while an efficacy of 100% means that no disease is observed.

For series [18], the system named is Botrytis cinerea. Briefly: Example P: in vivo preventive test on Botrytis cinerea (grey mould), gherkin plants. The settings on record: 500 ppm of active ingredient, grading 4 to 5 days after contamination. The essentials:
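Gherkin plants at Z11 cotyledon stage sprayed preventively with active ingredient, then inoculated 24 h later with B. cinerea spores (50 000/mL) in PDB/fructose nutrient solution. Incubation at 17 °C and 90% RH; % efficacy graded 4–5 days post-inoculation against solvent-treated controls.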

For `CON(C(=O)c1cn(C)nc1C(F)F)C1CCC2CCCCC21` (stereo not shown) [Example 11], the logP in [1] was determined as 3.50. Moreover, the Efficacy in [2] came to 100%; in series [3], 100%; in series [4], 100%; in [5], 71%; in [6] it was 94%; in [7] it was 100%. This compound also yielded an Efficacy in series [8] of 92%.
With `CC1CC(C)(C)C2CCCC(NC(=O)c3c(C(F)F)nn(C)c3F)C12` (stereo not shown) [Example 14], the logP in series [1] turned out to be 4.29. The Efficacy is reported as 98% in series [9]; 100% in series [10]; 100% in series [11]; 99% in [12]; 75% in series [13]; 90% in [14]. The Efficacy in series [15] turned out to be 83%; in [16], 88%; in [17], 100%.
With `Cn1nc(C(F)F)c(C(=O)NC2CCC3CCCC32)c1F` (stereo not shown) [Example 2], the logP in series [1] came to 2.86. In addition, the Efficacy in series [3] is on record as 70%; in series [6], 98%; in series [18], 70%; in [7], 98%; in [8], 71%.
For the compound `Cn1nc(C(F)F)c(C(=O)N(CC2(Cc3ccccc3)CC3CCC2C3)C2CC2)c1Cl` (stereo not shown) [Example 68], the logP in series [1] stood at 5.06. In addition, the Efficacy in series [2] amounted to 98%; in series [5], 71%; in series [6], 75%; in series [8] it was 80%.
`Cn1nc(C(F)F)c(C(=O)N(C2CC2)C2CCCC3CCCCC32)c1F` (mixture of isomers) [Example 31]: the Efficacy in [2] is reported as 100%; in series [3] it was 100%; in [4], 97%; in [5] it was 96%; in series [6], 100%; in series [18] it was 100%. Also, the Efficacy in series [7] was found to be 100%; in [8], 80%.
